According to US11236105B2, “Bicyclic compounds and methods of use” (BioTheryX, Inc., priority 2017, dated 2022):

Test system: TNF-α
Test: Cell-Based TNFα Inhibition Assay (PBMCs induced with LPS, Meso Scale)
Details: PBMC, PBMCs pretreated 1 hr, induced with LPS 100 ng/mL 18-24 hrs, supernatant TNF-α; for inhibition at 0.1 µM: 0.1 μM compound; for inhibition at 1 µM: 1 μM compound
Experimental: Cell-Based TNFα Inhibition Assay
PBMCs induced with LPS (lipopolysaccharide): Frozen […] blood mononuclear cells (PBMCs) are purchased from AllCells. Cells are quick thawed, washed once with Roswell Park Memorial Institute medium (RPMI)-1640/10% FBS/1% Penicillin/1% Streptomycin and plated in 96 well plates at 200,000 cells per well. Cells are pretreated with DMSO only or the indicated compounds for 1 hr and then induced with […] for 18-24 hrs. The supernatant is analyzed for TNF-α using Meso Scale assay according to manufacturer's protocol. The negative control wells are treated with DMSO. Compound activity is measured as a percentage of the DMSO control.

Structure (SMILES)	inhibition at 0.1 µM [%]	inhibition at 1 µM [%]
CCOc1cc([C@@H](CS(C)(=O)=O)N2Cc3c(NC(=O)C(F)(F)F)csc3C2=O)ccc1OC [Compound 30, (S)—N-(5-(1-(3-ethoxy-4-methoxyphenyl)-2-(methylsulfonyl)ethyl)-6-oxo-5,6-dihydro-4H-thieno[2,3-c]pyrrol-3-yl)-2,2,2-trifluoroacetamide]	< 20	< 20
CCOc1cc([C@@H](CS(C)(=O)=O)N2Cc3c(NC(=O)COC)csc3C2=O)ccc1OC [Compound 31, (S)—N-(5-(1-(3-ethoxy-4-methoxyphenyl)-2-(methylsulfonyl)ethyl)-6-oxo-5,6-dihydro-4H-thieno[2,3-c]pyrrol-3-yl)-2-methoxyacetamide]	< 20	< 20
CCOc1cc([C@@H](CS(C)(=O)=O)N2Cc3c(NC(=O)C4CC4)csc3C2=O)ccc1OC [Compound 32, (S)—N-(5-(1-(3-ethoxy-4-methoxyphenyl)-2-(methylsulfonyl)ethyl)-6-oxo-5,6-dihydro-4H-thieno[2,3-c]pyrrol-3-yl)cyclopropanecarboxamide]	< 20	20 to 40
